Laboratory results as given in patent publication US20110092476A1, “Bicycloheteroaryl compounds as P2X7 modulators and uses thereof” (Renovis, Inc., priority 2006, published 2011).

Target: T1, P2X7 receptor (Homo sapiens, UniProt Q99572)
T1 construct: host or cells: THP-1 cells differentiated with LPS and IFN-γ
T1 sequence (Q99572 1-595): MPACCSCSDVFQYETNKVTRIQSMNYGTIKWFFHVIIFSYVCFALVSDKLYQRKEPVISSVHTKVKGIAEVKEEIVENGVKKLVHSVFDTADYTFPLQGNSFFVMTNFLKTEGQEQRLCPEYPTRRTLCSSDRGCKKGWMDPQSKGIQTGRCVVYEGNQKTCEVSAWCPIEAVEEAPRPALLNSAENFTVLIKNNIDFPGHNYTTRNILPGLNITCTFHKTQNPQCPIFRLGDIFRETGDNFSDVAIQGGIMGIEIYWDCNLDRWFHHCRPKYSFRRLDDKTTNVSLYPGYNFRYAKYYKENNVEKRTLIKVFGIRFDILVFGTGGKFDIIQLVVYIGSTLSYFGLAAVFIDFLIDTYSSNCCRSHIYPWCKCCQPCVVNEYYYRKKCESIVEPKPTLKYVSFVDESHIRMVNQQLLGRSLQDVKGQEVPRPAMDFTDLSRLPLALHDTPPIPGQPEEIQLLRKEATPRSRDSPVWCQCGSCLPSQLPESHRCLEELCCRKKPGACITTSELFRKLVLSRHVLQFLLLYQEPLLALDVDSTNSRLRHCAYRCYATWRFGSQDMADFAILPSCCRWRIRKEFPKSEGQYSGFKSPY
Test: IL-1β release assay in differentiated THP-1 cells stimulated with BzATP (Example 9)
Type: cell-based
Conditions: 0.1 μM compound (symbols *); differentiated THP-1 cells, BzATP 250 uM; read-out: IL-1β % Inhib. @ 0.3 or 0.1 uM
Procedure: THP-1 cells (ATCC Cat #285-IF-100) are plated in 96 well plates at a concentration of 200,000 cells per well and allowed to differentiate in RPMI-1640 media (ATCC Cat #30-2001) containing 10% FBS, 100 IU/mL penicillin, 100 ug/mL streptomycin, 100 ng/mL LPS and 100 ng/mL IFN-γ for 16 hours. Following differentiation, the cells are treated for an additional 2 hours in RPMI-1640 media containing 100 IU/mL penicillin, 100 ug/mL streptomycin and fresh LPS at 100 ng/mL. The cells are then pretreated for 30 minutes with the compound of interest at the appropriate concentration in RPMI media containing 100 IU/mL penicillin, 100 ug/mL streptomycin. Following the pretreatment 2′,3′-O-(4-benzoylbenzoyl)-adenosine 5′-triphosphate (Sigma Aldrich Cat #B6396) is added to a final concentration of 250 uM and the cells are incubated for an additional 45 minutes. 30 uL of cell supernatant is then collected and IL-1β levels determined via ELISA (R&D systems Cat. #HSLB50) according to manufacturer's recommendations using the Tecan Safire plate reader. Background adjusted IL-1β levels of drug treated and non-treated cells are used to calculate the percent inhibition.
The compounds set forth in Table 1 were tested for activity in a cellular model as described herein. Specifically, cells were pretreated with differing amounts of the compound under test and released IL-1β determined as in Example 9, above. Measurements were made and IC50 values, presented in Table 2, below, were determined by fitting the data to a four parameter logistic equation using GraphPad Prism software (GraphPad Software, Inc). The equation may be expressed by the following formula:
Y=Bottom+(Top−Bottom)/(1+10̂((Log EC50−X)*HillSlope))
Where X is the logarithm of concentration, Y is the response and Y starts at Bottom and goes to Top with a sigmoid shape.

| inhibition at 0.1 µM [%] | Compound |
| --- | --- |
| 0 to 25 | COc1ccc(CC(=O)Nc2cccc3c(=O)n(CC(C)O)ccc23)c(OC)c1 (stereo not drawn) [Compound 174] |
| 0 to 25 | CC(C)(O)Cn1ccc2c(NC(=O)CCc3ccc4c(c3)OCO4)cccc2c1=O [Compound 195] |
| 0 to 25 | CC(CO)n1ccc2c(NC(=O)c3cccc4c3OCCO4)cccc2c1=O (stereo not drawn) [Compound 116] |
| 0 to 25 | CC(O)Cn1ccc2c(NC(=O)c3cc4cc(Cl)ccc4o3)cccc2c1=O (stereo not drawn) [Compound 181] |
| 0 to 25 | CC(O)Cn1ccc2c(NC(=O)c3ccc(-c4ccccc4)o3)cccc2c1=O (stereo not drawn) [Compound 127] |
| 0 to 25 | CCOc1ccc(CC(=O)Nc2cccc3c(=O)n(CC(C)O)ccc23)cc1 (stereo not drawn) [Compound 161] |
| 0 to 25 | CC(O)Cn1ccc2c(NC(=O)c3ccc4ccccc4c3)cccc2c1=O (stereo not drawn) [Compound 152] |
| 0 to 25 | O=C(Cc1ccccc1Cl)Nc1cccc2c(=O)n(CC3(O)CCCCC3)ccc12 [Compound 88] |
| 0 to 25 | Cc1ccc(Cl)cc1C(=O)Nc1cccc2c(=O)n(CC(C)O)ccc12 (stereo not drawn) [Compound 179] |
| 0 to 25 | COc1ccc(CCC(=O)Nc2cccc3c(=O)n(C(C)CO)ccc23)cc1 (stereo not drawn) [Compound 105] |
| 0 to 25 | Cc1ccc(Cl)cc1C(=O)Nc1cccc2c(=O)n(C(C)CO)ccc12 (stereo not drawn) [Compound 122] |
| 0 to 25 | COc1ccc(C(=O)Nc2cccc3c(=O)n(C(C)CO)ccc23)cc1C (stereo not drawn) [Compound 123] |
| 0 to 25 | COc1ccccc1CC(=O)Nc1cccc2c(=O)n(CC(C)O)ccc12 (stereo not drawn) [Compound 155] |
| 0 to 25 | Cc1ccc(C(=O)Nc2cccc3c(=O)n(CC(C)O)ccc23)cc1Cl (stereo not drawn) [Compound 168] |
| 0 to 25 | COc1cccc(CCC(=O)Nc2cccc3c(=O)n(CC(C)(C)O)ccc23)c1 [Compound 189] |
| 0 to 25 | COc1ccc(C(=O)Nc2cccc3c(=O)n(C(C)CO)ccc23)cc1Cl (stereo not drawn) [Compound 92] |
| 0 to 25 | CC(O)Cn1ccc2c(NC(=O)c3cc4ccccc4o3)cccc2c1=O (stereo not drawn) [Compound 164] |
| 0 to 25 | Cc1cccc(C(=O)Nc2cccc3c(=O)n(CC4(O)CCCCC4)ccc23)c1 [Compound 20] |
| 0 to 25 | CC(O)Cn1ccc2c(NC(=O)Cc3cccc4ccccc34)cccc2c1=O (stereo not drawn) [Compound 151] |

Same assay, conditions: 0.1 μM compound; differentiated THP-1 cells, BzATP 250 uM; "*" symbols; read-out: IL-1β % Inhib. @ 0.3 or 0.1 uM

| inhibition at 0.1 µM [%] | Compound |
| --- | --- |
| 26 to 50 | COc1cccc(CC(=O)Nc2cccc3c(=O)n(CC(C)(C)O)ccc23)c1 [Compound 212] |
| 0 to 25 | CC(C)(O)Cn1ccc2c(NC(=O)c3ccc4c(c3)OCCCO4)cccc2c1=O [Compound 223] |
| 26 to 50 | Cc1ccc(C(=O)Nc2cccc3c(=O)n(CC(C)(C)O)ccc23)cc1Cl [Compound 220] |
| 0 to 25 | COc1ccc(OC)c(CC(=O)Nc2cccc3c(=O)n(CC(C)(C)O)ccc23)c1 [Compound 210] |

Same assay, conditions: 0.3 μM compound (symbols +); differentiated THP-1 cells, BzATP 250 uM; read-out: IL-1β % Inhib. @ 0.3 or 0.1 uM

| inhibition at 0.3 µM [%] | Compound |
| --- | --- |
| 0 to 25 | Cc1cccc(CC(=O)Nc2cccc3c(=O)n(CC4(O)CCCCC4)ccc23)c1 [Compound 32] |
| 0 to 25 | Cc1cc(C(=O)Nc2cccc3c(=O)n(CC4(O)CCCCC4)ccc23)ccc1F [Compound 48] |
| 0 to 25 | O=C(Nc1cccc2c(=O)n(CCO)ccc12)c1ccccc1 [Compound 1] |
| 0 to 25 | CCOc1ccccc1CC(=O)Nc1cccc2c(=O)n(CC3(O)CCCCC3)ccc12 [Compound 50] |
| 0 to 25 | O=C(Nc1cccc2c(=O)n(CC3(O)CCCCC3)ccc12)c1cc2ccccc2o1 [Compound 37] |
| 0 to 25 | O=C(CCc1cc(C(F)(F)F)cc(C(F)(F)F)c1)Nc1cccc2c(=O)n(CCO)ccc12 [Compound 61] |
| 26 to 50 | O=C(Cc1ccc(F)cc1)Nc1cccc2c(=O)n(CCO)ccc12 [Compound 73] |
| 0 to 25 | COc1c(C)cc(C(=O)Nc2cccc3c(=O)n(CC4(O)CCCCC4)ccc23)cc1C [Compound 40] |
| 26 to 50 | Cc1ccc(CC(=O)Nc2cccc3c(=O)n(CC4(O)CCCCC4)ccc23)cc1 [Compound 35] |
| 26 to 50 | CC(C)Cc1ccc(C(=O)Nc2cccc3c(=O)n(CC4(O)CCCCC4)ccc23)cc1 [Compound 59] |
| 51 to 75 | O=C(CCc1ccccc1)Nc1cccc2c(=O)n(CCO)ccc12 [Compound 3] |
| 51 to 75 | O=C(Cc1ccc(Cl)cc1Cl)Nc1cccc2c(=O)n(C(CO)CO)ccc12 [Compound 82] |
| 0 to 25 | COc1cccc(CC(=O)Nc2cccc3c(=O)n(CCO)ccc23)c1 [Compound 75] |

Same assay, conditions: 0.3 μM compound; differentiated THP-1 cells, BzATP 250 uM; "+" symbols; read-out: IL-1β % Inhib. @ 0.3 or 0.1 uM

| inhibition at 0.3 µM [%] | Compound |
| --- | --- |
| 26 to 50 | CC(C(=O)Nc1cccc2c(=O)n(CCO)ccc12)c1ccc(Cl)cc1 (stereo not drawn) [Compound 244] |
| > 76 | Cc1ccc2c(=O)n(CCO)ccc2c1NC(=O)Cc1cccc(C(F)(F)F)c1F [Compound 396] |
| > 76 | CC(C(=O)Nc1cccc2c(=O)n([C@@H](C)C(N)=O)ccc12)c1cccc(C(F)(F)F)c1F (stereo partly drawn) [Compound 355] |
| 26 to 50 | O=C(Cc1ccc(C(F)(F)F)cc1C(F)(F)F)Nc1cccc2c(=O)n(C(CO)CO)ccc12 [Compound 233] |
| > 76 | CC(=O)NCCn1ccc2c(NC(=O)Cc3ccc(F)c(F)c3)cccc2c1=O [Compound 392] |
| 51 to 75 | C[C@H](C(=O)Nc1cccc2c(=O)n([C@H](C)C(=O)NC3CC3)ccc12)c1ccc(Cl)cc1 [Compound 308, (R)-2-{5-[(S)-2-(4-Chloro-phenyl)-propionylamino]-1-oxo-1H-isoquinolin-2-yl}-N-cyclopropyl-propionamide] |
| 0 to 25 | C[C@H](C(N)=O)n1ccc2c(NC(=O)Cc3ccccc3Cl)cccc2c1=O [Compound 260] |
| 26 to 50 | C[C@H](C(N)=O)n1ccc2c(NC(=O)Cc3ccccc3F)cccc2c1=O [Compound 294] |
| > 76 | CC(C(=O)Nc1cccc2c(=O)n(CCO)ccc12)c1ccc(Cl)c(C(F)(F)F)c1 (stereo not drawn) [Compound 251] |
| > 76 | O=C(Cc1ccc(Cl)c(C(F)(F)F)c1)Nc1cccc2c(=O)n(CC3CCNCC3)ccc12 [Compound 257, 2-(4-Chloro-3-trifluoromethyl-phenyl)-N-(1-oxo-2-piperidin-4-ylmethyl-1,2-dihydro-isoquinolin-5-yl)-acetamide] |
| > 76 | C[C@@H](C(N)=O)n1ccc2c(NC(=O)Cc3cccc(C(F)(F)F)c3F)cccc2c1=O [Compound 349] |
| 51 to 75 | C[C@H](C(=O)Nc1cccc2c(=O)n(C(C(N)=O)c3ccc(Cl)cc3)ccc12)c1ccc(Cl)cc1 (stereo partly drawn) [Compound 315, (S)—N-{2-[Carbamoyl-(4-chloro-phenyl)-methyl]-1-oxo-1,2-dihydro-isoquinolin-5-yl}-2-(4-chloro-phenyl)-propionamide] |
| > 76 | C[C@H](C(=O)Nc1c(Cl)ccc2c(=O)n([C@H](C)C(N)=O)ccc12)c1ccc(Cl)cc1 [Compound 340] |
| 0 to 25 | C[C@H](C(N)=O)n1ccc2c(NC(=O)Cc3ccccn3)cccc2c1=O [Compound 309] |
| > 76 | CC(C)(CO)n1ccc2c(NC(=O)Cc3ccc(C(F)(F)F)c(F)c3)cccc2c1=O [Compound 365] |
| 26 to 50 | CC(C(=O)Nc1cccc2c(=O)n(C(CO)CO)ccc12)c1ccc(Cl)cc1 (stereo not drawn) [Compound 231] |
| 0 to 25 | C[C@H](C(N)=O)n1ccc2c(NC(=O)c3cccc4ncccc34)cccc2c1=O [Compound 272] |
| 51 to 75 | C[C@H](C(N)=O)n1ccc2c(NC(=O)Cc3ccc(OC(F)(F)F)cc3)cccc2c1=O [Compound 311] |

Same assay, conditions: THP-1 cells, BzATP 250 uM, IL-1β by ELISA

| IC50 [nM] | Compound |
| --- | --- |
| 10.7 | Cc1ccc2c(=O)n(CCO)ccc2c1NC(=O)Cc1cccc(C(F)(F)F)c1F [Compound 396] |
| 0.74 | CC(=O)NCCn1ccc2c(NC(=O)Cc3ccc(F)c(F)c3)cccc2c1=O [Compound 392] |
| 150 | C[C@H](C(N)=O)n1ccc2c(NC(=O)Cc3ccc(OC(F)(F)F)cc3)cccc2c1=O [Compound 311] |
